Values of other authors, collected in patent publication US20090156647A1, “Method for maintaining physiological pH levels during intensive physical exercise” (IOVATE T. & P. INC., priority 2007, published 2009).

Settings: about 1.5 g of HICA daily after intense exercise for 42 days

Compound: CC(C)CC(O)C(=O)O (centres unmarked) [HICA, 2-hydroxy-4-methylvaleric acid]
- delayed onset muscular soreness (DOMS) experienced by subjects: little to no DOMS
- total lean soft tissue mass: statistically significant increase
